Values quoted from earlier work in PMC9014651 (Bioorganic Chemistry, 2022).

Test system: coronavirus variants (B.1.1.7 and B.1.351)
Conditions: cited from earlier work

## Cc1ccc(NC(=O)c2ccc(CN3CCN(C)CC3)cc2)cc1Nc1nc(-c2cccnc2)cs1 [Masitinib]
  Effect on tested coronavirus variants in vitro: effective
